The results in this text go back to ChEMBL document CHEMBL4330082, “Tailoring a lead-like compound targeting multiple G-quadruplex structures” (Eur J Med Chem, 2019).

Activity calls are given as the source filed them. The rule behind the calls is not given here. Some results are limits rather than exact numbers.

Series [1] has as its system Quadruplex DNA. As to the kind of experiment: Binding affinity to synthetic telomeric 26 G-quadruplex DNA assessed as residual binding at 60 uM after 4 mins by UV-Vis spectrophotometric analysis relative to control. The class given is nucleic-acid assay.
Series [2] deals with Quadruplex DNA. As to the kind of experiment: Binding affinity to synthetic c-Kit1 G-quadruplex DNA assessed as residual binding at 60 uM after 4 mins by UV-Vis spectrophotometric analysis relative to control. It is filed as nucleic-acid assay.
The subject of series [3] is Quadruplex DNA. The experiment in a line: Binding affinity to synthetic c-Kit2 G-quadruplex DNA assessed as residual binding at 60 uM after 4 mins by UV-Vis spectrophotometric analysis relative to control. The class given is nucleic-acid assay.
For series [4], the system named is Quadruplex DNA. As to the kind of experiment: Binding affinity to human TERT1 G-quadruplex DNA assessed as residual binding at 60 uM after 4 mins by UV-Vis spectrophotometric analysis relative to control. The class given is nucleic-acid assay.
In series [5] the test system is dsDNA. The experiment in a line: Binding affinity to synthetic 27-mer duplex DNA assessed as residual binding at 60 uM after 4 mins by UV-Vis spectrophotometric analysis relative to control. The class given is nucleic-acid assay.
For series [6], the species on record is Homo sapiens. As to the kind of experiment: Induction of telomeric DNA damage in human BJeH-LT cells expressing human TERT assessed as increase in gamma-histone H2AX levels at 0.5 uM after 24 hrs by immunofluorescence assay. The class given is functional, cell-based.
In series [7] the test system is Quadruplex DNA. The experiment in a line: Binding affinity to synthetic cMYC G-quadruplex DNA assessed as residual binding at 60 uM after 4 mins by UV-Vis spectrophotometric analysis relative to control. The class given is nucleic-acid assay.
For series [8], the species on record is Homo sapiens. As to the kind of experiment: Induction of telomeric DNA damage in human BJeH-LT cells expressing human TERT assessed as increase in TIF positive cells at 0.5 uM after 24 hrs by immunofluorescence assay. It is filed as functional, cell-based.
Series [9] has as its system HeLa. As to the kind of experiment: Inhibition of colony formation in human HeLa cells at 2 uM after 10 days by methylene blue staining-based assay. It is filed as functional, cell-based.
Series [10] concerns BJ. The experiment in a line: Cytotoxicity against in human BJ cells expressing human TERT assessed as reduction in cell viability at 1 to 2 uM incubated for 6 days by trypan blue exclusion assay. The class given is cell-based. As to conditions: 144 h.
The subject of series [11] is Quadruplex DNA. As to the kind of experiment: Induction of conformational changes in synthetic telomeric 26 G-quadruplex DNA at 1 to 5 equivalents after 5 mins by CD spectra analysis. It is filed as nucleic-acid assay.
For series [12], the system named is Quadruplex DNA. The experiment in a line: Induction of conformational changes in synthetic cMYC G-quadruplex DNA at 1 to 5 equivalents after 5 mins by CD spectra analysis. It is filed as nucleic-acid assay.
In series [13] the test system is dsDNA. The experiment in a line: Induction of conformational changes in synthetic 27-mer duplex DNA at 1 to 5 equivalents after 5 mins by CD spectra analysis. It is filed as nucleic-acid assay.
Series [14] has as its system Quadruplex DNA. The experiment in a line: Binding affinity to synthetic telomeric 26 G-quadruplex DNA assessed as melting temperature compound:DNA ratio of 5:1 after 5 mins by CD spectra analysis (reference value: 49 degreeC). The class given is nucleic-acid assay.
For series [15], the system named is Quadruplex DNA. As to the kind of experiment: Binding affinity to synthetic cMYC G-quadruplex DNA assessed as melting temperature compound:DNA ratio of 5:1 after 5 mins by CD spectra analysis (reference value: 82 degreeC). It is filed as nucleic-acid assay.
In series [16] the test system is dsDNA. The experiment in a line: Binding affinity to synthetic 27-mer duplex DNA assessed as melting temperature compound:DNA ratio of 5:1 after 5 mins by CD spectra analysis (reference value: 75 degreeC). It is filed as nucleic-acid assay.
The subject of series [17] is Quadruplex DNA. The experiment in a line: Binding affinity to synthetic modified telomeric 24 G-quadruplex DNA assessed as melting temperature compound:DNA ratio of 4:1 by 1H NMR spectroscopic analysis. It is filed as nucleic-acid assay.
Series [18] deals with Quadruplex DNA. The experiment in a line: Binding affinity to synthetic MYC 22 G-quadruplex DNA assessed as melting temperature compound:DNA ratio of 4:1 by 1H NMR spectroscopic analysis. The class given is nucleic-acid assay.
In series [19] the test system is dsDNA. As to the kind of experiment: Binding affinity to synthetic 12-mer duplex DNA assessed as melting temperature compound:DNA ratio of 4:1 by 1H NMR spectroscopic analysis. It is filed as nucleic-acid assay.
Series [20] has as its target Quadruplex DNA. The experiment in a line: Binding affinity to Cy5-fluorescently labeled synthetic MYC 22 G-quadruplex DNA by microscale thermophoresis assay. It is filed as nucleic-acid assay. A general note: MST reads how a fluorescent partner responds to local heating, with and without ligand.
Series [21] concerns the target Quadruplex DNA. The experiment in a line: Binding affinity to Cy5-fluorescently labeled synthetic Telomeric 26 G-quadruplex DNA by microscale thermophoresis assay. It is filed as nucleic-acid assay.
The test system of series [22] is HeLa. The experiment in a line: Inhibition of colony formation in human HeLa cells at 0.5 to 2 uM after 10 days by methylene blue staining-based assay. The class given is functional.

Turning to `O=C1c2ccccc2C(=O)c2c1oc1c3c(ccc21)OCN(Cc1ccco1)C3`, the Activity in [1] came to 86%; in series [2], 90%; in [3], 92%; in series [4], 91%; in [5], 2%; in series [7], 93%. Besides, the result in series [6] and in [8] was Active. Also, the inhibition result in series [9] was “Active”.
Turning to `CC(c1ccccc1)N1COc2ccc3c4c(oc3c2C1)C(=O)c1ccccc1C4=O` (stereo not given), the Activity was 80% in series [1]; 78% in series [2]; 80% in series [3]; 82% in series [4]; 0% in [5]; “Non-Toxic” in series [10]. The Activity in series [7] is 84%. For the same compound, the outcome in [6], in [11], in [12], in series [8], in series [17] and in [18] was Active. Moreover, the result in series [13] and in series [19] was inactive. The Tm in series [14] is 50 °C; in series [15] it was > 90 °C; in series [16], 76 °C. Besides, the Kd (as a rule, the constant that tells how readily two partners part at equilibrium) in series [20] was determined as 13 µM; in series [21] it was 26 µM.
Consider `O=C1c2ccccc2C(=O)c2c1oc1c3c(ccc21)OCN(CCCN1CCOCC1)C3`, for which the Activity in [1] came to 80%; in [2], 77%; in series [3], 84%; in [4] it was 92%; in series [5] it was 33%; in [7] it was 89%. Also, the result in [6] and in series [8] was Active. Besides, the inhibition entry in series [9] was “Active”.
Turning to `O=C1c2ccccc2C(=O)c2c1oc1c3c(ccc21)OCN(CCCn1ccnc1)C3`, the Activity in series [1] was determined as 80%; in [2], 85%; in [3] it was 91%; in [4] it was 82%; in series [5], 46%; in series [7], 94%. Further, the outcome in series [6] and in [8] was Active. Besides, in series [9], the inhibition entry was “Active”.
`O=C1c2ccccc2C(=O)c2c1oc1c3c(ccc21)OCN(CCC1=CCCCC1)C3`: the Activity in series [1] was 73%; in [2] it was 55%; in [3], 67%; in series [4], 73%; in [5] it was 16%; in [7], 84%. The outcome in series [6] and in series [8] was Active. Besides, in series [9], the inhibition entry was “Active”.
In the case of `O=C1c2ccccc2C(=O)c2c1oc1c3c(ccc21)OCN(Cc1cccnc1)C3`, the Activity amounted to 79% in series [1]; 90% in [2]; 88% in [3]; 89% in [4]; 28% in series [5]; 94% in series [7]. In addition, the outcome in [6] and in [8] was inactive. For the same compound, the inhibition result in series [9] was “Active”.
As to `O=C1c2ccccc2C(=O)c2c1oc1c3c(ccc21)OCN(CC1CCCO1)C3` (stereo not given), the Activity came to 78% in [1]; 88% in series [2]; 83% in [3]; 87% in [4]; 20% in [5]; 90% in series [7]. Also, the outcome in series [6] and in series [8] was Active. For the same compound, the inhibition entry in series [9] was “Active”.
Take `O=C1c2ccccc2C(=O)c2c1oc1c3c(ccc21)OCN(CC1CCS(=O)(=O)C1)C3` (stereo not given): the Activity in series [1] worked out at 75%; in series [2] it was 72%; in [3] it was 68%; in [4], 76%; in series [5], 16%; in [7] it was 73%. Besides, the outcome in series [6] and in series [8] was inactive. Also, the inhibition entry in series [9] is “Active”.
`O=C1c2ccccc2C(=O)c2c1oc1c3c(ccc21)OCN(Cc1ccccc1)C3`: the Activity in series [1] amounted to 80%; in [2], 76%; in series [3] it was 83%; in series [4], 78%; in series [5], 12%; in series [7], 87%. The result in series [6] and in series [8] was Active. In series [9], the inhibition result was “Active”.
On to `CC(=O)c1c(C)oc2c1c1c(c3ccccc32)OCN(CCCN2CCOCC2)C1`, for which the Activity in [1] is 76%; in [2] it was 75%; in series [3], 70%; in [4], 78%; in series [5], 22%; in series [7], 74%. In addition, the outcome in series [6] and in [8] was inactive. In [9], the inhibition result is “Active”.
Turning to `O=C1c2ccccc2C(=O)c2c1oc1c3c(ccc21)OCN(C1CCCCC1)C3`, the Activity in series [1] is 86%; in [2] it was 70%; in series [3] it was 82%; in series [4] it was 74%; in series [5], 18%; in [10] it was “Toxic”. For the same compound, the Activity in series [7] is 86%. The result in series [6], in series [11], in [12], in series [8], in series [17] and in [18] was Active. Besides, in series [22], the MED was determined as 2 µM. Besides, the result in series [13] and in series [19] was inactive. Besides, the Tm is 49 °C in [14], > 90 °C in series [15] and 76 °C in [16].
